Source: PubChem BioAssay (NCI)
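Briefly, cells in 96-well plates were exposed to five compound concentrations for 48 h, and endpoints were estimated by linear interpolation. TGI: total growth inhibition.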

Assays:
Test in all cases: DTP human tumour cell line panel, 48 h
786-0 renal = tested on: 786-0 renal
A498 renal = tested on: A498 renal
A549 NSCLC = tested on: A549 NSCLC
ACHN renal = tested on: ACHN renal
CAKI-1 renal = tested on: CAKI-1 renal
CCRF-CEM leukemia = tested on: CCRF-CEM leukemia
COLO 205 colon = tested on: COLO 205 colon
DLD-1 colon = tested on: DLD-1 colon
DMS 114 small cell lung = tested on: DMS 114 small cell lung
DMS 273 small cell lung = tested on: DMS 273 small cell lung
EKVX NSCLC = tested on: EKVX NSCLC
HCC-2998 colon = tested on: HCC-2998 colon
HCT-15 colon = tested on: HCT-15 colon
HL-60(TB) leukemia = tested on: HL-60(TB) leukemia
HOP-92 NSCLC = tested on: HOP-92 NSCLC
HT29 colon = tested on: HT29 colon
IGROV1 ovarian = tested on: IGROV1 ovarian
K-562 leukemia = tested on: K-562 leukemia
KM12 colon = tested on: KM12 colon
KM20L2 colon = tested on: KM20L2 colon
LOX IMVI melanoma = tested on: LOX IMVI melanoma
LXFL 529 NSCLC = tested on: LXFL 529 NSCLC
M14 melanoma = tested on: M14 melanoma
M19-MEL melanoma = tested on: M19-MEL melanoma
MALME-3M melanoma = tested on: MALME-3M melanoma
MOLT-4 leukemia = tested on: MOLT-4 leukemia
NCI-H226 lung = tested on: NCI-H226 lung
NCI-H23 lung = tested on: NCI-H23 lung
NCI-H460 lung = tested on: NCI-H460 lung
OVCAR-3 ovarian = tested on: OVCAR-3 ovarian
OVCAR-4 ovarian = tested on: OVCAR-4 ovarian
OVCAR-5 ovarian = tested on: OVCAR-5 ovarian
OVCAR-8 ovarian = tested on: OVCAR-8 ovarian
RPMI-8226 leukemia = tested on: RPMI-8226 leukemia
RXF-631 renal = tested on: RXF-631 renal
SF-268 CNS = tested on: SF-268 CNS
SF-295 CNS = tested on: SF-295 CNS
SK-MEL-2 melanoma = tested on: SK-MEL-2 melanoma
SK-MEL-28 melanoma = tested on: SK-MEL-28 melanoma
SK-MEL-5 melanoma = tested on: SK-MEL-5 melanoma
SK-OV-3 ovarian = tested on: SK-OV-3 ovarian
SN12C renal = tested on: SN12C renal
SNB-19 CNS = tested on: SNB-19 CNS
SNB-75 CNS = tested on: SNB-75 CNS
SNB-78 CNS = tested on: SNB-78 CNS
SW-620 colon = tested on: SW-620 colon
TK-10 renal = tested on: TK-10 renal
U251 CNS = tested on: U251 CNS
UACC-257 melanoma = tested on: UACC-257 melanoma
UACC-62 melanoma = tested on: UACC-62 melanoma
UO-31 renal = tested on: UO-31 renal
XF 498 CNS = tested on: XF 498 CNS
HCT-116 colon = tested on: HCT-116 colon
HOP-62 NSCLC = tested on: HOP-62 NSCLC
NCI-H522 lung = tested on: NCI-H522 lung
RXF 393 renal = tested on: RXF 393 renal
SF-539 CNS = tested on: SF-539 CNS
SR leukemia = tested on: SR leukemia
HOP-18 NSCLC = tested on: HOP-18 NSCLC

Measured: TGI

COc1ccc2c(c1)[n+]([O-])c(-c1c(Cl)cccc1Cl)c(N)[n+]2[O-]
71.6 µM: COLO 205 colon
84 µM: SK-MEL-28 melanoma
42.9 µM: SK-MEL-5 melanoma
48.4 µM: MALME-3M melanoma
63.7 µM: NCI-H23 lung
60.1 µM: RXF-631 renal
61.8 µM: UACC-257 melanoma
not listed: HCT-116 colon | HOP-62 NSCLC | NCI-H522 lung | RXF 393 renal | SF-539 CNS | SR leukemia | HOP-18 NSCLC
> 100 µM: all other assays above

COc1ccc(=[O+]C)c2nssc1-2
71.5 µM: UACC-257 melanoma
48.7 µM: SF-539 CNS
35.8 µM: SK-MEL-5 melanoma
67.7 µM: UACC-62 melanoma
79.6 µM: U251 CNS
40.2 µM: M19-MEL melanoma
not listed: DMS 114 small cell lung | HCT-15 colon | HOP-92 NSCLC | RPMI-8226 leukemia | HOP-18 NSCLC
> 100 µM: all other assays above

O=C(O/N=C1/CCCC/C1=C\c1ccccc1)c1ccc(Cl)c(Cl)c1
32.3 µM: A549 NSCLC
35.8 µM: SW-620 colon
36.7 µM: NCI-H23 lung
32.9 µM: U251 CNS
39.5 µM: SNB-78 CNS
52.5 µM: IGROV1 ovarian
31.8 µM: RXF-631 renal | UO-31 renal
45.6 µM: UACC-62 melanoma
30.3 µM: ACHN renal
42.8 µM: LOX IMVI melanoma
26.4 µM: HCT-116 colon
58.8 µM: TK-10 renal
60.2 µM: RXF 393 renal
96.2 µM: 786-0 renal
34.1 µM: HL-60(TB) leukemia
68.4 µM: SK-MEL-28 melanoma
34.5 µM: K-562 leukemia
48.9 µM: HT29 colon
60 µM: SF-539 CNS
32.5 µM: OVCAR-8 ovarian
81.5 µM: COLO 205 colon
61.6 µM: SNB-75 CNS
53.8 µM: DMS 273 small cell lung
27.9 µM: LXFL 529 NSCLC
54.4 µM: OVCAR-4 ovarian
33.1 µM: NCI-H522 lung
60.9 µM: MOLT-4 leukemia
24.6 µM: SF-268 CNS
67.2 µM: CAKI-1 renal
41 µM: OVCAR-3 ovarian
53.2 µM: CCRF-CEM leukemia
not listed: A498 renal | DMS 114 small cell lung
> 100 µM: all other assays above
